Experimental data from patent US20260364080A1, “PYRAZOLO-PYRIMIDINONE COMPOUNDS FOR USE IN METHODS OF INHIBITING WEE1 A KINASE” (Acrivon Therapeutics, Inc., priority 2023, published 2026).
Like-named read-outs stand apart in the source and are kept apart here.

Assays:
[1] = biological target: T1, Wee1A kinase (CDK1 Tyr15 phosphorylation in ACHN renal cell carcinoma cells) (Homo sapiens, UniProt P30291); assay: High-content imaging of pCdk1 Y15, Wee1A kinase target engagement in ACHN cells; format: cell-based
T1 construct: pCDK1 Tyr15 immunofluorescence read-out
Outline: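 EC50 values come from the per-well fraction of cells with nuclear pCdk1 Y15 staining, normalised to DMSO control, by automated immunofluorescence imaging. Cells were ACHN renal carcinoma, treated 4 h with compound at 7–5,000 nM or 0.3–200 nM.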

[2] = biological target: T2, Myt1 kinase (recombinant PMYT-1) (Homo sapiens, UniProt Q99640); assay: Myt1 kinase binding assay (LanthaScreen Eu Kinase Binding Assay)
T2 construct: full length PMYT-1 was expressed by baculovirus in insect cells; purchased Invitrogen A30984; host or cells: insect cells (baculovirus)
T2 sequence (Q99640 1-499): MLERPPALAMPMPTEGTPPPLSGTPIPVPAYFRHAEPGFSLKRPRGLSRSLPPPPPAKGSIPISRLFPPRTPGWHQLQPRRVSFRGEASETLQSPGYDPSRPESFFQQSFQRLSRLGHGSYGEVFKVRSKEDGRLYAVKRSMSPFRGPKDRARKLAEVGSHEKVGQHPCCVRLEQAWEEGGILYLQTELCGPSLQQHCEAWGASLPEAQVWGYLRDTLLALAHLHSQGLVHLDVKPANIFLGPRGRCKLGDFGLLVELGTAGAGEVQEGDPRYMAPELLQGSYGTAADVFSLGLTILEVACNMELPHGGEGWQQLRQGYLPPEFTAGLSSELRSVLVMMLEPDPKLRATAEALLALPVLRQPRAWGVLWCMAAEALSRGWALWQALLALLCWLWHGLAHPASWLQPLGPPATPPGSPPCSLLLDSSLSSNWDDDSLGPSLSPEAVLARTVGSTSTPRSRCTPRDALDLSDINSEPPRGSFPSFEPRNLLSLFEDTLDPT
Outline: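 Compound binding to Myt1 kinase was assessed using the LanthaScreen Eu Kinase Binding Assay. This europium-based binding format was applied to quantify how strongly each compound bound to the Myt1 enzyme, and the binding affinity was reported for each compound as an IC50 value.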

[3] = biological target: T3, recombinant human Wee1A kinase (Homo sapiens, UniProt P30291); assay: Wee1A kinase binding assay (LanthaScreen Eu time-resolved FRET)
T3 construct: full length Wee1 kinase was expressed by baculovirus in insect cells; purchased Invitrogen PV3817; host or cells: insect cells (baculovirus)
Outline: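 Full-length, baculovirus-expressed GST-tagged Wee1A (5 nM) was mixed with 2 nM Eu-anti-GST antibody, 30 nM kinase tracer 178 and compound (1% DMSO). Buffer was 50 mM HEPES pH 7.5, 10 mM MgCl2, 1 mM EGTA, 0.01% Brij-35, incubated 60 min at room temperature. TR-FRET 665/615 nm emission ratios from duplicates were curve-fitted.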

[4] = 4 h treatment, nuclear positivity for pCdk1 Y15 vs DMSO control, read-out: CDK1 Tyr15 Phosphorylation EC50
[5] = 3 nM tracer 178, 2.5 nM PMYT-1, 1 nM Eu-labeled antibody, read-out: Myt1 kinase Binding IC50
[6] = 30 nM tracer 178, 5 nM Wee1A kinase, 2 nM Eu-labeled antibody, 60 minutes at room temperature, read-out: Wee1A kinase Binding IC50

T3 sequence (P30291 whole entry): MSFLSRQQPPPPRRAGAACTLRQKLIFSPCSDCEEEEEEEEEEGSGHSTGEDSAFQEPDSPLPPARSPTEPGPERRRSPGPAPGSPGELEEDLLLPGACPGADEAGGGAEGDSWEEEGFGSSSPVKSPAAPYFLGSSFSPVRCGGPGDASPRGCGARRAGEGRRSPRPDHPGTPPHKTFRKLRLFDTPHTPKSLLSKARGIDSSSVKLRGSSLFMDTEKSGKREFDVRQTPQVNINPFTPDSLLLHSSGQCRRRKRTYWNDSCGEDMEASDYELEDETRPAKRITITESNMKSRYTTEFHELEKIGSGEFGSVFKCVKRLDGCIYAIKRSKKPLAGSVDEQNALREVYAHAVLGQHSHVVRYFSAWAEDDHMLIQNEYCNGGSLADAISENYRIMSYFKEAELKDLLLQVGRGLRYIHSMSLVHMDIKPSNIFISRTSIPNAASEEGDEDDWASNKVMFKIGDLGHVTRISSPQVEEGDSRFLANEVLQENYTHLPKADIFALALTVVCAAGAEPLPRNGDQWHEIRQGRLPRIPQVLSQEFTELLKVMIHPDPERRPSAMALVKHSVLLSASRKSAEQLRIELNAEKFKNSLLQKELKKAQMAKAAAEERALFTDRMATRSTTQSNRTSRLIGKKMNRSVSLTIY
T1 sequence (P30291 whole entry): as above

Compound	EC50 [1, 4]	IC50 [2, 5]	IC50 [3, 6]	EC50 ([1]; read-out: CDK1 Tyr15 Phosphorylation EC50, 4 h treatment, nuclear positivity for pCdk1 Y15 vs DMSO control)	IC50 ([2]; Myt1 kinase Binding IC50, 3 nM tracer 178, 2.5 nM PMYT-1, 1 nM Eu-labeled antibody)	IC50 [3]
CCn1c(=O)c2cnc(Nc3ccc(Br)cc3)nc2n1-c1cccc(OC2CCN(C)CC2)n1 [Compound 268, 6-(p-bromophenylamino)-2-ethyl-1-[6-(1-methyl-4-piperidyloxy)-2-pyridyl]-1,2-dihydro-3H-1,2,5,7-tetraazainden-3-one]	100 to 500 nM	< 20 nM	< 10 nM			
C=CCn1c(=O)c2cnc(Nc3ccc4c(cnn4C)c3)nc2n1-c1cccc(O[C@H]2CCN(C)[C@H](C)C2)n1 (stereo in doubt) [Compound 380, rel-2-allyl-1-(6-(((2R,4S)-1,2-dimethylpiperidin-4-yl)oxy)pyridin-2-yl)-6-((1-methyl-1H-indazol-5-yl)amino)-1,2-dihydro-3H-pyrazolo[3,4-d]pyrimidin-3-one]	100 to 500 nM	100 to 500 nM	< 10 nM			
C=CCn1c(=O)c2cnc(Nc3ccc(F)cc3)nc2n1-c1cccc(OC2CCCN(C)CC2)n1 (single isomer, unassigned) [Compound 372]	< 100 nM	20 to 100 nM	< 10 nM			
C=CCn1c(=O)c2cnc(Nc3cncc(F)c3)nc2n1-c1cccc(OC2CCN(C)CC2)n1 [Compound 327, 2-allyl-6-(5-fluoro-3-pyridylamino)-1-[6-(1-methyl-4-piperidyloxy)-2-pyridyl]-1,2-dihydro-3H-1,2,5,7-tetraazainden-3-one]	100 to 500 nM	20 to 100 nM	< 10 nM			
C=CCn1c(=O)c2cnc(Nc3cccc(C)c3)nc2n1-c1cccc(NC2CCNCC2)n1 [Compound 126, 2-allyl-1-[6-(4-piperidylamino)-2-pyridyl]-6-m-toluidino-1,2-dihydro-3H-1,2,5,7-tetraazainden-3-one]	100 to 500 nM	> 500 nM	< 10 nM			
C=CCn1c(=O)c2cnc(Nc3ccc4c(cnn4C)c3)nc2n1-c1cccc(OC2CCN(C)C(C)(C)C2)n1 (stereo not drawn) [Compound 343, 2-allyl-6-((1-methyl-1H-indazol-5-yl)amino)-1-(6-((1,2,2-trimethylpiperidin-4-yl)oxy)pyridin-2-yl)-1,2-dihydro-3H-pyrazolo[3,4-d]pyrimidin-3-one]	100 to 500 nM	100 to 500 nM	< 10 nM			
CCn1c(=O)c2cnc(Nc3ccc4c(ccn4C)c3)nc2n1-c1cccc(OC2CCNCC2)n1 [Compound 353, 2-ethyl-6-((1-methyl-1H-indol-5-yl)amino)-1-(6-(piperidin-4-yloxy)pyridin-2-yl)-1,2-dihydro-3H-pyrazolo[3,4-d]pyrimidin-3-one]	< 100 nM	20 to 100 nM	< 10 nM			
C=CCn1c(=O)c2cnc(Nc3ccc4c(c3)nnn4C(C)C)nc2n1-c1cccc(OC2CCNCC2)n1 [Compound 408, 2-allyl-6-((1-isopropyl-1H-benzo[d][1,2,3]triazol-5-yl)amino)-1-(6-(piperidin-4-yloxy)pyridin-2-yl)-1,2-dihydro-3H-pyrazolo[3,4-d]pyrimidin-3-one]	< 100 nM	< 20 nM	< 10 nM			
Cn1c(=O)c2cnc(Nc3ccc(Cl)cc3)nc2n1-c1cccc(OC2CCNCC2)n1 [Compound 153, 6-(p-chlorophenylamino)-2-methyl-1-[6-(4-piperidyloxy)-2-pyridyl]-1,2-dihydro-3H-1,2,5,7-tetraazainden-3-one]	500 to 1000 nM	20 to 100 nM	< 10 nM			
C=CCn1c(=O)c2cnc(Nc3cnn(C(C)C)c3)nc2n1-c1cccc(N(C)C2CCN(C)CC2)n1 [Compound 174, 1-{6-[methyl(1-methylpiperidin-4-yl)amino]pyridin-2-yl}-2-(prop-2-en-1-yl)-6-{[1-(propan-2-yl)-1H-pyrazol-4-yl]amino}-1H,2H,3H-pyrazolo[3,4-d]pyrimidin-3-one]				100 to 500 nM	> 500 nM	< 10 nM
Cc1cc(Nc2ncc3c(=O)n(C)n(-c4cccc(OC5CCN(C)CC5)n4)c3n2)ccc1F [Compound 152, 6-(4-fluoro-3-toluidino)-2-methyl-1-[6-(1-methyl-4-piperidyloxy)-2-pyridyl]-1,2-dihydro-3H-1,2,5,7-tetraazainden-3-one]	100 to 500 nM	20 to 100 nM	< 10 nM			

Other lines, results leading:

EC50 [1, 4]	IC50 [2, 5]	IC50 [3, 6]	EC50 ([1]; read-out: CDK1 Tyr15 Phosphorylation EC50, 4 h treatment, nuclear positivity for pCdk1 Y15 vs DMSO control)	IC50 ([2]; Myt1 kinase Binding IC50, 3 nM tracer 178, 2.5 nM PMYT-1, 1 nM Eu-labeled antibody)	IC50 [3]	Compound
100 to 500 nM	100 to 500 nM	< 10 nM				CCn1c(=O)c2cnc(Nc3cnn(C)c3)nc2n1-c1cccc(OC2CCN(C)CC2)n1 [Compound 132, 2-ethyl-1-[6-(1-methyl-4-piperidyloxy)-2-pyridyl]-6-(1-methyl-4-pyrazolylamino)-1,2-dihydro-3H-1,2,5,7-tetraazainden-3-one]
100 to 500 nM	< 20 nM	< 10 nM				C=CCn1c(=O)c2cnc(Nc3ccc4nccnc4c3)nc2n1-c1cccc(OC2CCNCC2)n1 [Compound 239, 2-allyl-1-[6-(4-piperidyloxy)-2-pyridyl]-6-(6-quinoxalinylamino)-1,2-dihydro-3H-1,2,5,7-tetraazainden-3-one]
100 to 500 nM	20 to 100 nM	< 10 nM				C=CCn1c(=O)c2cnc(Nc3ccc(C)nc3)nc2n1-c1cccc(OC2CCNCC2)n1 [Compound 237, 2-allyl-6-((6-methylpyridin-3-yl)amino)-1-(6-(piperidin-4-yloxy)pyridin-2-yl)-1,2-dihydro-3H-pyrazolo[3,4-d]pyrimidin-3-one]
< 100 nM	20 to 100 nM	< 10 nM				C=CCn1c(=O)c2cnc(Nc3ccc(F)cc3)nc2n1-c1ccnc(OC2CCN(C)CC2)n1 [Compound 348, 2-allyl-6-((4-fluorophenyl)amino)-1-(2-((1-methylpiperidin-4-yl)oxy)pyrimidin-4-yl)-1,2-dihydro-3H-pyrazolo[3,4-d]pyrimidin-3-one]
< 100 nM	< 20 nM	< 10 nM				C=CCn1c(=O)c2cnc(Nc3cnc4c(cnn4C(C)C)c3)nc2n1-c1cccc(OC2CCNCC2)n1 [Compound 407, 2-allyl-6-((1-isopropyl-1H-pyrazolo[3,4-b]pyridin-5-yl)amino)-1-(6-(piperidin-4-yloxy)pyridin-2-yl)-1,2-dihydro-3H-pyrazolo[3,4-d]pyrimidin-3-one]
100 to 500 nM	> 500 nM	< 10 nM				C=CCn1c(=O)c2cnc(Nc3ccc4c(cnn4C)c3)nc2n1-c1cccc(OC2CCNCC2)c1 [Compound 223, 2-allyl-6-(1-methyl-1H-indazol-5-ylamino)-1-[m-(4-piperidyloxy)phenyl]-1,2-dihydro-3H-1,2,5,7-tetraazainden-3-one]
> 1000 nM	20 to 100 nM	< 10 nM				C=CCn1c(=O)c2cnc(Nc3ccc4nccn4c3)nc2n1-c1cccc(OC2CCNCC2)n1 [Compound 324, 6-(1,3a-diaza-5-indenylamino)-2-allyl-1-[6-(4-piperidyloxy)-2-pyridyl]-1,2-dihydro-3H-1,2,5,7-tetraazainden-3-one]
100 to 500 nM	20 to 100 nM	< 10 nM				C=CCn1c(=O)c2cnc(Nc3ccc4cn(C)nc4c3)nc2n1-c1cccc(OC2CCNCC2)n1 [Compound 393, 2-allyl-6-((2-methyl-2H-indazol-6-yl)amino)-1-(6-(piperidin-4-yloxy)pyridin-2-yl)-1,2-dihydro-3H-pyrazolo[3,4-d]pyrimidin-3-one]
500 to 1000 nM	20 to 100 nM	< 10 nM				C=CCn1c(=O)c2cnc(Nc3ccc(Cl)cc3)nc2n1-c1cccc(N[C@H]2CCCNC2)n1 [Compound 165, 1-{6-[(S)-3-piperidylamino]-2-pyridyl}-2-allyl-6-(p-chlorophenylamino)-1,2-dihydro-3H-1,2,5,7-tetraazainden-3-one]
500 to 1000 nM	100 to 500 nM	< 10 nM				C=CCn1c(=O)c2cnc(Nc3ccc(F)cc3)nc2n1-c1cccc(NC2CCNCC2)n1 [Compound 125, 6-[(4-fluorophenyl)amino]-1-{6-[(piperidin-4-yl)amino]pyridin-2-yl}-2-(prop-2-en-1-yl)-1H,2H,3H-pyrazolo[3,4-d]pyrimidin-3-one]
